According to patent US8772284B2, “Method of treating cancer using combination of a bifunctional alkylating agent and DNA repair inhibitors” (Academia Sinica, priority 2009, dated 2014):

What was measured:
NTUB1 cells = test: Cell viability, WST-1 assay; type: cell-based, human; details: agent alone
Excerpt: (§1) Cell Lines and Cell Culture. H460 (human lung large cell carcinoma cells), H1299 (human lung large cell carcinoma p53-deficient cells), PC3 (human prostate carcinoma cells), U87 (human glioma cells), and MCF7 (human breast carcinoma cells) were purchased from the American Type Culture Collection (Rockville, Md.). OEC-M1 (human gingival squamous cell carcinoma cells) was obtained from Dr. C.-L. Meng (National Defense Medical College, Taiwan). NTUB1 (human bladder transitional carcinoma cells) and the cisplatin-resistant sub-line NTUB1/P were provided by Dr. Y.-S. Pu (National Taiwan University Hospital, Taiwan). CL-1-5 (human lung adenocarcinoma cells) was obtained from Dr. P. C. Yang (National Taiwan University). All cell lines (except U87, which was grown in MEM medium) were cultured in RPMI1640 medium supplemented with 10% FBS and antibiotics, and incubated at 37° C. in a humidified atmosphere with 5% CO2.
(§2) Measurement of Cell Viability. Cell viability was assessed using the cell proliferation reagent WST-1 (Roche Molecular Biochemicals, Penzberg, Germany), which is a tetrazolium salt that is cleaved by mitochondrial dehydrogenase in viable cells. In brief, 2,000-7,000 cells were seeded in each well of 96-well plates and incubated at 37° C. overnight prior to drug treatment. After a 72-h incubation with BO-1012 alone (0.1˜80 μM), ATO alone (1˜8 μM), or BO-1012 plus ATO, WST-1 solution was added to each well at a 1:10 dilution, and cells were incubated at 37° C. in 5% CO2 for 4 h. Cell viability was assessed by absorbance at 460 nm using an automatic enzyme-linked immunosorbent assay (ELISA) plate reader. The IC50 value for each drug, alone or in combination, was calculated using CompuSyn software (version 1.0.1; CompuSyn, Inc.). The interactions between ATO and BO-1012 were evaluated by the Chou-Talalay combination indices (CI), where CI<1 indicates synergy; CI=1, additivity; and CI>1, antagonism.

[1] = system: NTUB1/P cells (cisplatin-resistant); test: Cell viability, WST-1 assay; type: cell-based, human; details: for IC50: NTUB1/P cells, agent alone
Excerpt: as §1, §2

[2] = system: NTUB1/P cells (cisplatin-resistant); details: NTUB1/P vs NTUB1, stated with ref [37]; cited from earlier work
DNA ICLs in H460 cells = test: Modified comet assay, formation and repair of DNA ICLs; type: cell-based, human; details: treated 1 h
Description: (§3) H460 cells were treated with various concentrations of BO-1012, melphalan, or thiotepa for 1 h and then subjected to the modified comet assay as described in Materials and Methods. Percentage of DNA ICLs was calculated by the percentage of decrease in tail moment. […] H460 cells were treated with 40 μM BO-1012 for 1 h, washed, and then treated with 8 μM ATO for 16, 24, and 48 h. *, p<0.05 as compared to BO-1012 alone at the indicated time. […] H460 cells were treated with BO-1012 and ATO, alone or in combination, as described above. After treatment, the detection of γH2AX (green) immunofluorescence staining was performed as described in Materials and Methods. Nuclei were stained by DAPI (blue).
Modified Single-Cell Gel Electrophoresis (Comet) and DNA ICL Repair Assays. The formation and the repair of DNA ICLs in H460 cells was analyzed using a modified comet assay as described previously.

[3] = system: γH2AX nuclear foci in H460 cells; test: γH2AX nuclear foci, immunofluorescence staining; type: cell-based, human; details: time not stated
Description: as §3
Immunofluorescence Staining. H460 cells were cultured onto slides and then treated with BO-1012 and ATO, separately and in combination as described above, for 24, 48, or 72 h. To visualize γH2AX, cells were washed with cold PBS and fixed with 100% ice-cold methanol for 30 min. Slides were washed with PBS and incubated with anti-γH2AX antibody for 2 h at room temperature followed by Alexa Fluor 488-conjugated secondary antibodies (Molecular Probes, Eugene, Oreg.) and DAPI. After mounting with 50% glycerol, slides were subjected to confocal image analysis (Radiance 2100 System, Bio-Rad). Cells with at least four γH2AX foci in nuclei were counted as positive.

H460 xenografts = test: H460 xenograft mouse model; type: in vivo, nude mice; details: 2.5 mg/kg BO-1012 and/or 5 mg/kg ATO, i.v., QD×5
NTUB1 xenografts = test: NTUB1 xenograft mouse model; type: in vivo, nude mice; details: 2.5 mg/kg BO-1012 or 5 mg/kg ATO, i.v., QD×5
NTUB1/P xenografts = test: NTUB1/P xenograft mouse model; type: in vivo, nude mice; details: 5 mg/kg ATO, i.v., QD×5
CL-1-5 xenografts = details: CL-1-5 xenograft; LY294002 40 mg/Kg QD×9, triciribine 1 mg/Kg Q2D×5, BO-1509 10 mg/Kg

Row | Compound | IC50 (NTUB1 cells) | IC50 [1] | formation of ICLs (DNA ICLs in H460 cells) | also measured
1 | N.N.[Cl][Pt][Cl] [cisplatin] | 3.6 µM | 212 µM | – | fold more resistant to cisplatin than the parental cells [2]: 60 fold
2 | N[C@@H](Cc1ccc(N(CCCl)CCCl)cc1)C(=O)O [melphalan] | – | – | increased in a dose-dependent fashion | –
3 | S=P(N1CC1)(N1CC1)N1CC1 [thiotepa] | – | – | increased in a dose-dependent fashion | –
4 | arsenic trioxide [ATO] | 0.4 µM | 3.8 µM | did not cause ICLs | fold more resistant, NTUB1/P than NTUB1 cells ([1]; ratio of IC50 values): 9.5 fold; percentage of cells with γH2AX foci [3]: 26.8%; time to achieve a tumor volume of 500 mm^3 (H460 xenografts): 7.1 days; growth of NTUB1 tumors (NTUB1 xenografts): did not effectively suppress; growth of NTUB1/P tumors (NTUB1/P xenografts): did not effectively suppress
5 | O=c1cc(N2CCOCC2)oc2c(-c3ccccc3)cccc12 [LY294002, 2-(4-morpholinyl)-8-phenyl-chromone] | – | – | – | suppression of tumor growth (CL-1-5 xenografts): unable to suppress the tumor growth at all
